Results published in paper PMC7846792, “Perception of a divergent family of phytocytokines by the Arabidopsis receptor kinase MIK2” (Nature Communications, 2021).
No end group written: not given here.

System: A. thaliana seedlings
Test: Seedling growth inhibition (fresh weight)
Type: in vivo, Arabidopsis thaliana
Conditions: mock mean = 1
Experimental: Four-day-old seedlings growing on MS plates were transferred individually into separate wells of transparent 48-well tissue culture plates (Greiner Bio-One) containing 500 μL of liquid MS media with/without elicitor addition. The plates were then transferred back to the growth conditions for an additional 10 days before seedlings were blot-dried and weighed.

RAGPSKSGQGGGR [SCOOP7]
Seedling fresh weight (Fig3C), relative to mock (Col-0, 1 μM, replicate 1): 0.0761
Seedling fresh weight (Fig3C), relative to mock (Col-0, 1 μM, replicate 2): 0.03653
Seedling fresh weight (Fig3C), relative to mock (Col-0, 1 μM, replicate 3): 0.1644
Seedling fresh weight (Fig3C), relative to mock (Col-0, 1 μM, replicate 4): 0.1522
Seedling fresh weight (Fig3C), relative to mock (Col-0, 1 μM, replicate 5): 0.1644
Seedling fresh weight (Fig3C), relative to mock (Col-0, 1 μM, replicate 6): 0.01826
Seedling fresh weight (Fig3C), relative to mock (Col-0, 1 μM, replicate 7): 0.0761
Seedling fresh weight (Fig3C), relative to mock (Col-0, 1 μM, replicate 8): 0.07914
Seedling fresh weight (Fig3C), relative to mock (Col-0, 1 μM, replicate 9): 0.09436
Seedling fresh weight (Fig3C), relative to mock (Col-0, 1 μM, replicate 10): 0.08523
Seedling fresh weight (Fig3C), relative to mock (Col-0, 1 μM, replicate 11): 0.1218
Seedling fresh weight (Fig3C), relative to mock (Col-0, 1 μM, replicate 12): 0.1035
Seedling fresh weight (Fig3C), relative to mock (Col-0, 10 μM, replicate 1): 0.009098
Seedling fresh weight (Fig3C), relative to mock (Col-0, 10 μM, replicate 2): 0.006065
Seedling fresh weight (Fig3C), relative to mock (Col-0, 10 μM, replicate 3): 0.003033
Seedling fresh weight (Fig3C), relative to mock (Col-0, 10 μM, replicate 4): 0.009098
Seedling fresh weight (Fig3C), relative to mock (Col-0, 10 μM, replicate 5): 0.01213
Seedling fresh weight (Fig3C), relative to mock (Col-0, 10 μM, replicate 6): 0.009098
Seedling fresh weight (Fig3C), relative to mock (Col-0, 10 μM, replicate 7): 0.01213
Seedling fresh weight (Fig3C), relative to mock (Col-0, 10 μM, replicate 8): 0.009098
Seedling fresh weight (Fig3C), relative to mock (Col-0, 10 μM, replicate 9): 0.01213
Seedling fresh weight (Fig3C), relative to mock (Col-0, 10 μM, replicate 10): 0.009098
Seedling fresh weight (Fig3C), relative to mock (Col-0, 10 μM, replicate 11): 0.01516
Seedling fresh weight (Fig3C), relative to mock (Col-0, 10 μM, replicate 12): 0.006065
Seedling fresh weight (Fig3C), relative to mock (mik2-1, 1 μM, replicate 1): 1.0796
Seedling fresh weight (Fig3C), relative to mock (mik2-1, 1 μM, replicate 2): 1.12
Seedling fresh weight (Fig3C), relative to mock (mik2-1, 1 μM, replicate 3): 1.033
Seedling fresh weight (Fig3C), relative to mock (mik2-1, 1 μM, replicate 4): 0.9787
Seedling fresh weight (Fig3C), relative to mock (mik2-1, 1 μM, replicate 5): 1.006
Seedling fresh weight (Fig3C), relative to mock (mik2-1, 1 μM, replicate 6): 0.861
Seedling fresh weight (Fig3C), relative to mock (mik2-1, 1 μM, replicate 7): 0.9955
Seedling fresh weight (Fig3C), relative to mock (mik2-1, 1 μM, replicate 8): 0.9652
Seedling fresh weight (Fig3C), relative to mock (mik2-1, 1 μM, replicate 9): 0.9047
Seedling fresh weight (Fig3C), relative to mock (mik2-1, 1 μM, replicate 10): 1.0157
Seedling fresh weight (Fig3C), relative to mock (mik2-1, 1 μM, replicate 11): 1.049
Seedling fresh weight (Fig3C), relative to mock (mik2-1, 1 μM, replicate 12): 0.9518
Seedling fresh weight (Fig3C), relative to mock (mik2-1, 10 μM, replicate 1): 1.014
Seedling fresh weight (Fig3C), relative to mock (mik2-1, 10 μM, replicate 2): 0.9772
Seedling fresh weight (Fig3C), relative to mock (mik2-1, 10 μM, replicate 3): 0.9332
Seedling fresh weight (Fig3C), relative to mock (mik2-1, 10 μM, replicate 4): 0.9062
Seedling fresh weight (Fig3C), relative to mock (mik2-1, 10 μM, replicate 5): 1.001
Seedling fresh weight (Fig3C), relative to mock (mik2-1, 10 μM, replicate 6): 0.94
Seedling fresh weight (Fig3C), relative to mock (mik2-1, 10 μM, replicate 7): 1.035
Seedling fresh weight (Fig3C), relative to mock (mik2-1, 10 μM, replicate 8): 1.085
Seedling fresh weight (Fig3C), relative to mock (mik2-1, 10 μM, replicate 9): 1.062
Seedling fresh weight (Fig3C), relative to mock (mik2-1, 10 μM, replicate 10): 0.9197
Seedling fresh weight (Fig3C), relative to mock (mik2-1, 10 μM, replicate 11): 0.9569
Seedling fresh weight (Fig3C), relative to mock (mik2-1, 10 μM, replicate 12): 0.9028
